This is an account of results in patent US4416885A, “Use of isopropylaminopyrimidine in the chemotherapy of muscular dystrophy, myopathy and myotonia” (priority 1982, dated 1983).

In one test the test system is Dystrophic monocytes. The test can be described thus: Effect on human monocytes in culture (flat cells), dystrophic. It is filed as cell-based. Particulars: dystrophic monocyte + dibutryl c-GMP, one individual; untreated dystrophic 36.2%; preliminary.
Test [1] has as its system dystrophic New Hampshire chickens, line 413. The test can be described thus: Overall assessment of chemotherapy over all parameters measured. The format is in vivo, chicken. Particulars: 413 chickens, after 28 days of dilantin injections. Here is the method: The compound IAPP was tested on dystrophic New Hampshire chickens, line 413, and Imperial College (London, England) sub-line of the original Davis, University of California strain. The chickens are homozygous for muscular dystrophy, the disease appearing with 100% incidence.
Chemotherapy was assessed by application of seven different parameters: physical tests of muscular disability, namely the flip test and wing apposition (W.A.) measurements; biochemical assays of serum and muscle enzume levels of creatine phosphokinase (CPK), pyruvate kinase (PK) and acetylcholinesterase (AChE); and histological comparisons of treated and untreated muscle. Toxicity studies (weight loss, etc.) were also used. A very comprehensive profile of the drug was thus obtained which related to all the known, highly characteristic features of the disease which are applicable to both the animal model and the human. […]

Test [2] concerns dystrophic 413 muscle explants. The test can be described thus: Microtubule complexes in muscle explants of injected dystrophic chickens. The format is in vivo, chicken. Particulars: dystrophic 413 chickens, 28 days of dilantin injections. From the text:
Essentially, these experiments were divided into three subgroups, taken from the previous Table:
413A, 413B, 412A, 412B: All were sacrificed after 4 injections and muscle explants placed in culture.
413C, 412C: All were sacrificed after 8 injections and muscle explants were placed in culture.
413D, 412D: All were sacrificed after 10 injections and muscle explants placed in culture.
All explants were placed in CMRL culture medium containing 5% horse serum, 15% fetal bovine serum and 1% antibiotics and allowed to grow for 5-7 days before being fixed and observed for the presence or absence of microtubules. No IAPP was added to the culture medium during the 5-7 days in culture.

`CCCC(=O)Nc1nc2c(ncn2[C@@H]2O[C@@H]3COP(=O)(O)O[C@H]3[C@H]2OC(=O)CCC)c(=O)[nH]1` [dibutryl c-GMP, reference compound]: in the test with Dystrophic monocytes, the “% Flat Cells” value was 52.0%.
On to `O=C1NC(=O)C(c2ccccc2)(c2ccccc2)N1` [dilantin, reference compound], for which, in test [1], the “Appearance of dystrophic chickens” value was “Some dystrophic 413 chickens appeared normal”. For the same compound, in test [2], the “Correction of microtubule defect in explants” value is reported as “did not have their microtubule defect corrected”.
